Data from patent US20090270407A1, “FUNGICIDAL ISOXAZOLIDINES” (E. I. DU PONT DE NEMOURS AND COMPANY, priority 2008, published 2009).
Marks after values point to notes of the source that are not given here.

Columns and labels:
Details in all cases: 100 = 100 % disease control, 0 = no disease control relative to controls
Septoria nodorum = experiment: Test C: wheat glume blotch, preventive spray on wheat seedlings, visual disease rating
Description: (An asterisk “*” next to the rating value indicates a 40 ppm test suspension.)
The test suspension was sprayed to the point of run-off on wheat seedlings. The following day the seedlings were inoculated with a spore suspension of Septoria nodorum (the causal agent of wheat glume blotch) and incubated in a saturated atmosphere at 20° C. for 48 h, and then moved to a growth chamber at 20° C. for 7 days, after which time visual disease ratings were made.
(§1) A dash (−) indicates no test results. All results are for 200 ppm except where followed by “*” which indicates 40 ppm.

[1] = system: Puccinia recondita f. sp. tritici; experiment: Test B: wheat leaf rust, preventive spray on wheat seedlings, visual disease rating
Description: (§2) General protocol for preparing test suspensions for Tests A-I: The test compounds were first dissolved in acetone in an amount equal to 3% of the final volume and then suspended at the desired concentration (in ppm) in acetone and purified water (50/50 mix) containing 250 ppm of the surfactant Trem® 014 (polyhydric alcohol esters). The resulting test suspensions were then used in Tests A-I. Spraying a 200 ppm test suspension to the point of run-off on the test plants was the equivalent of a rate of 500 g/ha.
The test suspension was sprayed to the point of run-off on wheat seedlings. The following day the seedlings were inoculated with a spore suspension of Puccinia recondita f. sp. tritici (the causal agent of wheat leaf rust) and incubated in a saturated atmosphere at 20° C. for 24 h, and then moved to a growth chamber at 20° C. for 7 days, after which time visual disease ratings were made.
(§3) All results are for 200 ppm except where followed by “*” which indicates 40 ppm.

[2] = system: Erysiphe graminis f. sp. tritici; experiment: Test A: wheat powdery mildew, preventive spray on wheat seedlings, visual disease rating
Septoria tritici = experiment: Test D: wheat leaf blotch, preventive spray on wheat seedlings, visual disease rating; assay type: in vivo
Description: A dash (−) indicates no test results.

Botrytis cinerea = experiment: Test E: tomato Botrytis, preventive spray on tomato seedlings, visual disease rating
Description: as §2
The test suspension was sprayed to the point of run-off on tomato seedlings. The following day the seedlings were inoculated with a spore suspension of Botrytis cinerea (the causal agent of tomato Botrytis) and incubated in saturated atmosphere at 20° C. for 48 h, and then moved to a growth chamber at 24° C. for 3 additional days, after which time visual disease ratings were made.
as §3

Alternaria solani = experiment: Test F: tomato early blight, preventive spray on tomato seedlings, visual disease rating
Description: General protocol for preparing test suspensions for Tests A-I: The test compounds were first dissolved in acetone in an amount equal to 3% of the final volume and then suspended at the desired concentration (in ppm) in acetone and purified water (50/50 mix) containing 250 ppm of the surfactant Trem® 014 (polyhydric alcohol esters). The resulting test suspensions were then used in Tests A-I. Spraying a 200 ppm test suspension to the point of run-off on the test plants was the equivalent of a rate of 500 g/ha. (An asterisk “*” next to the rating value indicates a 40 ppm test suspension.)
The test suspension was sprayed to the point of run-off on tomato seedlings. The following day the seedlings were inoculated with a spore suspension of Alternaria solani (the causal agent of tomato early blight) and incubated in a saturated atmosphere at 27° C. for 48 h, and then moved to a growth chamber at 20° C. for 5 days, after which time visual disease ratings were made.
as §1

Compound	Test C disease control rating (Septoria nodorum; 40 ppm (marked *))	Test B disease control rating ([1]; 40 ppm (marked *))	Test A disease control rating ([2]; 40 ppm (marked *))	Test D disease control rating (Septoria tritici; 40 ppm (marked *))	Test E disease control rating (Botrytis cinerea; 40 ppm (marked *))	Test F disease control rating (Alternaria solani; 40 ppm (marked *))	Test C disease control rating (Septoria nodorum; 200 ppm) [%]	Test B disease control rating ([1]; 200 ppm) [%]	Test A disease control rating ([2]; 200 ppm) [%]	Test D disease control rating (Septoria tritici; 200 ppm) [%]	Test E disease control rating (Botrytis cinerea; 200 ppm) [%]	Test F disease control rating (Alternaria solani; 200 ppm) [%]
Cc1cccc(C2CC(C)(c3cccnc3)ON2C)c1 (mixture of isomers) [Compound 98]	0* %	0* %	0* %	3* %	0* %	0* %	–	–	–	–	–	–
CN1OC(C)(c2cccnc2)CC1c1ccccc1Cl (stereo not drawn) [Compound 92]	–	–	–	–	–	–	0	0	0	22	0	0
CN1OC(c2cccnc2)(C(F)(F)F)CC1c1ccc(-n2ccc(C(F)(F)F)n2)cc1 (stereo not drawn) [Compound 45]	0* %	0* %	96* %	52* %	0* %	0* %	–	–	–	–	–	–
CN1OC(C)(c2cccnc2)CC1c1ccc(-n2ccc(-c3ccccc3)n2)cc1 (stereo not drawn) [Compound 41]	0* %	0* %	78* %	65* %	0* %	0* %	–	–	–	–	–	–
CN1OC(C)(c2cccnc2)CC1c1ccc(-n2ccc(-c3ccccc3)n2)cc1 (stereo not drawn) [Compound 40]	64* %	0* %	78* %	77* %	75* %	0* %	–	–	–	–	–	–
CN1OC(C)(c2cccnc2)CC1c1ccc(-n2nc(-c3ccccn3)cc2C(F)(F)F)cc1 (stereo not drawn) [Compound 74]	0* %	22* %	0* %	2* %	0* %	0* %	–	–	–	–	–	–
CN1OC(C)(c2cccnc2)CC1c1ccc(-n2ccc(-c3ccc(Br)cc3)n2)cc1 (stereo not drawn) [Compound 49]	0* %	0* %	61* %	27* %	0* %	0* %	–	–	–	–	–	–
CN1OC(C)(c2cccnc2)CC1c1ccc(-n2nc(C(F)(F)F)cc2-c2ccccn2)cc1 (stereo not drawn) [Compound 71]	0* %	28* %	0* %	10* %	0* %	12* %	–	–	–	–	–	–
CN1OC(C)(c2cccnc2)CC1c1ccc(F)c(F)c1 (stereo not drawn) [Compound 82]	–	–	–	–	–	–	0	18	0	40	0	0
CN1OC(C)(c2cccnc2)CC1c1cccc(Cl)c1 (stereo not drawn) [Compound 77]	–	–	–	–	–	–	0	0	0	62	0	0
CN1OC(C)(c2cccnc2)CC1c1cccc(Br)c1 (stereo not drawn) [Compound 67]	–	–	–	–	–	–	0	0	47	8	34	0
CN1OC(C)(c2cccnc2)CC1c1ccc(-n2cc(I)cn2)cc1 (stereo not drawn) [Compound 57]	0* %	0* %	0* %	57* %	0* %	0* %	–	–	–	–	–	–
CN1OC(C)(c2cccnc2)CC1c1cccc2ccccc12 (mixture of isomers) [Compound 62]	–	–	–	–	–	–	97	17	97	80	88	91
CN1OC(C)(c2cccnc2)CC1c1ccc(Br)cc1Br (stereo not drawn) [Compound 84]	–	–	–	–	–	–	60	27	94	52	43	0
CN1OC(C)(c2cccnc2)CC1c1ccc(-c2ccncc2)cc1 (stereo not drawn) [Compound 60]	0* %	0* %	0* %	3* %	29* %	0* %	–	–	–	–	–	–
Cc1cc(C)n(-c2ccc(C3CC(C)(c4cccnc4)ON3C)cc2)n1 (stereo not drawn) [Compound 51]	0* %	0* %	0* %	32* %	0* %	0* %	–	–	–	–	–	–
CN1OC(C)(c2cccnc2)CC1c1ccc(-c2ccn(CC(F)(F)F)n2)cc1 (mixture of isomers) [Compound 80]	–	–	–	–	–	–	0	0	0	94	0	0
CN1OC(C)(c2cccnc2)CC1c1ccc(-n2nc(-c3ccccn3)cc2C(F)(F)F)cc1 (stereo not drawn) [Compound 75]	0* %	22* %	0* %	19* %	0* %	0* %	–	–	–	–	–	–
CN1OC(C)(c2cccnc2)CC1c1ccc(-n2nc(C(F)(F)F)cc2C(F)(F)F)cc1 (stereo not drawn) [Compound 58]	0* %	0* %	80* %	91* %	0* %	8* %	–	–	–	–	–	–
CN1OC(C)(c2cccnc2)CC1c1cccc(Br)c1 (stereo not drawn) [Compound 64]	–	–	–	–	–	–	0	0	64	45	0	0
CN1OC(C)(c2cccnc2)CC1c1ccc(-c2cccs2)cc1 (stereo not drawn) [Compound 54]	98* %	9* %	71* %	79* %	99* %	99* %	–	–	–	–	–	–
CN1OC(C)(c2cccnc2)CC1c1cccc(F)c1 (stereo not drawn) [Compound 94]	–	–	–	–	–	–	0	0	84	4	0	0
CN1OC(C)(c2cccnc2)CC1c1ccc(-n2nc(C(F)(F)F)cc2C(F)(F)F)cc1 (stereo not drawn) [Compound 59]	0* %	0* %	52* %	2* %	0* %	0* %	–	–	–	–	–	–
CN1OC(c2cccnc2)CC1c1ccc(-n2ccc(C(F)(F)F)n2)cc1 (stereo not drawn) [Compound 72]	100* %	100* %	99* %	93* %	96* %	94* %	–	–	–	–	–	–
CN1OC(C)(c2cccnc2)CC1c1ccc(-n2ccc(-c3cccs3)n2)cc1 (stereo not drawn) [Compound 47]	0* %	0* %	35* %	42* %	0* %	0* %	–	–	–	–	–	–
CN1OC(C)(c2cccnc2)CC1c1ccc(Br)c(F)c1 (stereo not drawn) [Compound 101]	–	–	–	–	–	–	86	0	99	68	100	99
Cc1cnn(-c2ccc(C3CC(C)(c4cccnc4)ON3C)cc2)c1 (stereo not drawn) [Compound 69]	97* %	0* %	0* %	12* %	87* %	99* %	–	–	–	–	–	–
CN1OC(C)(c2cccnc2)CC1c1ccccc1Cl (stereo not drawn) [Compound 93]	–	–	–	–	–	–	0	0	0	3	0	0
COC(=O)c1ccc(C2CC(C)(c3cccnc3)ON2C)cc1 (stereo not drawn) [Compound 39]	–	–	–	–	–	–	51	0	88	32	90	0
CN1OC(C)(c2cccnc2)CC1c1cccc2c1OC(F)(F)O2 (mixture of isomers) [Compound 89]	–	–	–	–	–	–	0	0	0	36	0	16
